Columns and labels:
Alternaria solani = Alternaria solani / tomato / leaf disc (early blight); format: in vivo; details: foliar, tomato leaf disks cv. Baby, inoculated 2 days after application, assessed 5-7 days after application, read-out: control of Alternaria solani (percent disease control compared to untreated)
Experimental: Example B1: Alternaria solani/Tomato/Leaf Disc (Early Blight) Tomato leaf disks cv. Baby are placed on agar in multiwell plates (24-well format) and sprayed with the formulated test compound diluted in water. The leaf disks are inoculated with a spore suspension of the fungus 2 days after application. The inoculated leaf disks are incubated at 23° C./21° C. […] […]-185.

[1] = test system: Glomerella lagenarium (Colletotrichum lagenarium); assay: Glomerella lagenarium (Colletotrichum lagenarium) / liquid culture (anthracnose); format: cell-based; details: Colletotrichum orbiculare, PDB potato dextrose broth, 24° C., 3-4 days after application, read-out: control of Glomerella lagenarium (inhibition of growth, photometric)
How it was run: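 Fungal growth inhibition measured photometrically 3-4 days post-application at 24° C. Spores were mixed directly into potato dextrose broth and dispensed onto test compound supplied in DMSO.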

[2] = test system: Blumeria graminis f. sp. tritici (Erysiphe graminis f. sp. tritici); assay: Blumeria graminis f. sp. tritici / wheat / leaf disc preventative (powdery mildew on wheat); format: in vivo; details: foliar, wheat leaf segments cv. Kanzler, inoculated 1 day after application, assessed 6-8 days after application, read-out: control of Blumeria graminis f. sp. tritici (percent disease control compared to untreated)
Description: Example B4: Blumeria graminis f. sp. tritici (Erysiphe graminis f. sp. tritici)/Wheat/Leaf Disc Preventative (Powdery Mildew on Wheat) Wheat leaf segments cv. Kanzler are placed on agar in a multiwell plate (24-well format) and sprayed with the formulated test compound diluted in water. The leaf disks are inoculated by shaking powdery mildew infected plants above the test plates 1 day after application. […] […]-192.

[3] = test system: Phaeosphaeria nodorum (Septoria nodorum); assay: Phaeosphaeria nodorum (Septoria nodorum) / wheat / leaf disc preventative (glume blotch); format: in vivo; details: Parastagonospora nodorum, foliar, wheat leaf segments cv. Kanzler, inoculated 2 days after application, assessed 5-7 days after application, read-out: control of Phaeosphaeria nodorum (percent disease control compared to untreated)
Experimental: Example B6: Phaeosphaeria nodorum (Septoria nodorum)/Wheat/Leaf Disc Preventative (Glume Blotch) Wheat leaf segments cv. Kanzler are placed on agar in a multiwell plate (24-well format) and sprayed with the formulated test compound diluted in water. The leaf disks are inoculated with a spore suspension of the fungus 2 days after application. The inoculated test leaf disks are incubated at 20° C. and 75% rh under a light regime of 12 h light/12 h darkness in a climate cabinet and the activity of a compound is assessed as percent disease control compared to untreated when an appropriate level of disease damage appears in untreated check leaf disks (5-7 days after application). […] […]-190.

[4] = test system: Monographella nivalis (Microdochium nivale); assay: Monographella nivalis (Microdochium nivale) / liquid culture (foot rot cereals); format: cell-based; details: PDB potato dextrose broth, 24° C., 4-5 days after application, read-out: control of Monographella nivalis (inhibition of growth, photometric)
How it was run: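 Growth inhibition measured by photometry 4-5 days post-application at 24° C. Compound was dispensed as DMSO solution, then PDB broth containing conidia from cryogenic storage was added.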

[5] = test system: Mycosphaerella arachidis (Cercospora arachidicola); assay: Mycosphaerella arachidis (Cercospora arachidicola) / liquid culture (early leaf spot); format: cell-based; details: PDB potato dextrose broth, 24° C., 4-5 days after application, read-out: control of Mycosphaerella arachidis (inhibition of growth, photometric)
Experimental: Example B8: Mycosphaerella arachidis (Cercospora arachidicola)/Liquid Culture (Early Leaf Spot) Conidia of the fungus from cryogenic storage are directly mixed into nutrient broth (PDB potato dextrose broth). After placing a (DMSO) solution of test compound into a microtiter plate (96-well format), the nutrient broth containing the fungal spores is added. The test plates are incubated at 24° C. and the inhibition of growth is determined photometrically 4-5 days after application. […] […]-180.

[6] = test system: Puccinia recondita f. sp. tritici; assay: Puccinia recondita f. sp. tritici / wheat / leaf disc preventative (brown rust); format: in vivo; details: foliar, wheat leaf segments cv. Kanzler, inoculated 1 day after application, assessed 7-9 days after application, read-out: control of Puccinia recondita f. sp. tritici, preventative (percent disease control compared to untreated)
How it was run: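 Wheat leaf segments (cv. Kanzler) on agar were sprayed with formulated compound, then inoculated with spores 1 day later. Segments were incubated at 19 °C, 75% rh with 12 h light/dark. Percent disease control versus untreated was scored 7–9 days after application.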

[7] = test system: Magnaporthe grisea (Pyricularia oryzae); assay: whole plant or invertebrate; format: in vivo; details: foliar, read-out: control of Magnaporthe grisea (percent disease control compared to untreated)
Pyrenophora teres = Pyrenophora teres / barley / leaf disc preventative (net blotch); format: in vivo; details: foliar, barley leaf segments cv. Hasso, inoculated 2 days after application, assessed 5-7 days after application, read-out: control of Pyrenophora teres (disease control compared to untreated)
Experimental: Example B13: Pyrenophora teres/Barley/Leaf Disc Preventative (Net Blotch) Barley leaf segments cv. Hasso are placed on agar in a multiwell plate (24-well format) and sprayed with the formulated test compound diluted in water. The leaf segments are inoculated with a spore suspension of the fungus 2 days after application. The inoculated leaf segments are incubated at 20° C. and 65% rh under a light regime of 12 h light/12 h darkness in a climate cabinet and the activity of a compound is assessed as disease control compared to untreated when an appropriate level of disease damage appears in untreated check leaf segments (5-7 days after application). […] […]-185.

[8] = test system: Mycosphaerella graminicola (Septoria tritici); assay: Mycosphaerella graminicola (Septoria tritici) / liquid culture (Septoria blotch); format: cell-based; details: Zymoseptoria tritici, PDB potato dextrose broth, 24° C., 4-5 days after application, read-out: control of Mycosphaerella graminicola (inhibition of growth, photometric)
How it was run: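 Fungal growth inhibition was read photometrically 4-5 days after application. Compound was dosed from a DMSO solution into liquid cultures of spores in potato dextrose broth, incubated at 24° C.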

COc1ccc(Nc2cc(F)cc(F)c2)nc1C(=O)NCC(C)(C)C [Compound P-22, 6-(3,5-difluoroanilino)-N-(2,2-dimethylpropyl)-3-methoxy-pyridine-2-carboxamide]
≥ 80%: pest or weed control at 200 ppm (Alternaria solani) | inhibition at 20 ppm [1] | pest or weed control at 200 ppm [2] | pest or weed control at 200 ppm [3] | inhibition at 20 ppm [4] | inhibition at 20 ppm [5] | pest or weed control at 200 ppm [6] | pest or weed control at 200 ppm [7] | pest or weed control at 200 ppm (Pyrenophora teres) | inhibition at 20 ppm [8]

COc1ccc(Nc2cc(F)cc(F)c2)nc1C(=O)NCc1cc(F)cc(F)c1 [Compound P-26, 6-(3,5-difluoroanilino)-N-[(3,5-difluorophenyl)methyl]-3-methoxy-pyridine-2-carboxamide]
≥ 80%: inhibition at 20 ppm [1] | pest or weed control at 200 ppm [2] | pest or weed control at 200 ppm [3] | inhibition at 20 ppm [4] | inhibition at 20 ppm [5] | pest or weed control at 200 ppm [6] | pest or weed control at 200 ppm [7] | pest or weed control at 200 ppm (Pyrenophora teres) | inhibition at 20 ppm [8]

COc1ccc(Nc2cc(F)cc(F)c2)nc1C(=O)NC1CCC1Oc1ccc(F)cc1 (centres unmarked) [Compound P-45, 6-(3,5-difluoroanilino)-N-[2-(4-fluorophenoxy)cyclobutyl]-3-methoxy-pyridine-2-carboxamide]
≥ 80%: pest or weed control at 200 ppm (Alternaria solani) | inhibition at 20 ppm [1] | pest or weed control at 200 ppm [2] | pest or weed control at 200 ppm [3] | inhibition at 20 ppm [4] | inhibition at 20 ppm [5] | pest or weed control at 200 ppm [6] | pest or weed control at 200 ppm [7] | pest or weed control at 200 ppm (Pyrenophora teres) | inhibition at 20 ppm [8]

COc1ccc(Nc2cc(F)cc(F)c2)nc1C(=O)NC1CCc2cc(C(F)(F)F)ccc21 (centres unmarked) [Compound P-55, 6-(3,5-difluoroanilino)-3-methoxy-N-[5-(trifluoromethyl)indan-1-yl]pyridine-2-carboxamide]
≥ 80%: pest or weed control at 200 ppm (Alternaria solani) | inhibition at 20 ppm [1] | pest or weed control at 200 ppm [3] | inhibition at 20 ppm [4] | inhibition at 20 ppm [5] | pest or weed control at 200 ppm [6] | pest or weed control at 200 ppm [7] | inhibition at 20 ppm [8]

COc1ccc(Nc2cc(F)cc(F)c2)nc1C(=O)NC1CCc2ccc(C(F)(F)F)cc21 (centres unmarked) [Compound P-56, 6-(3,5-difluoroanilino)-3-methoxy-N-[6-(trifluoromethyl)indan-1-yl]pyridine-2-carboxamide]
≥ 80%: pest or weed control at 200 ppm (Alternaria solani) | inhibition at 20 ppm [1] | pest or weed control at 200 ppm [3] | inhibition at 20 ppm [4] | inhibition at 20 ppm [5] | pest or weed control at 200 ppm [6] | inhibition at 20 ppm [8]

COc1ccc(Nc2cc(F)cc(F)c2)nc1C(=O)NCc1ccc(Oc2ccccc2)cc1 [Compound P-57, 6-(3,5-difluoroanilino)-3-methoxy-N-[(4-phenoxyphenyl)methyl]pyridine-2-carboxamide]
≥ 80%: inhibition at 20 ppm [1] | pest or weed control at 200 ppm [2] | pest or weed control at 200 ppm [3] | inhibition at 20 ppm [4] | inhibition at 20 ppm [5] | pest or weed control at 200 ppm [6] | pest or weed control at 200 ppm [7] | pest or weed control at 200 ppm (Pyrenophora teres) | inhibition at 20 ppm [8]

CCOc1ccc(Nc2cc(F)cc(F)c2)nc1C(=O)NC(C)(C)C [Compound P-94, N-tert-butyl-6-(3,5-difluoroanilino)-3-ethoxy-pyridine-2-carboxamide]
≥ 80%: pest or weed control at 200 ppm (Alternaria solani) | inhibition at 20 ppm [1] | pest or weed control at 200 ppm [2] | pest or weed control at 200 ppm [3] | inhibition at 20 ppm [4] | inhibition at 20 ppm [5] | pest or weed control at 200 ppm [7] | pest or weed control at 200 ppm (Pyrenophora teres) | inhibition at 20 ppm [8]

Reference: patent publication US12458021B2, “Microbiocidal derivatives” (SYNGENTA CROP PROTECTION AG, priority 2019, dated 2025)
